Laboratory results as given in US8551984B2, “Aminopyrimidines as SYK inhibitors” (Merck Sharp & Dohme Corp., priority 2009, dated 2013).

Each molecule was assayed against recombinant human SYK (GST-hSYK fusion protein) (Homo sapiens, UniProt P43405). Settings: read-out: rhSYK Activity (IC50); recombinant human GST-SYK 5 pM, ATP 25 μM, biotinylated substrate peptide 250 nM, HTRF, 10-dose titration.
Source text: Homogeneous Time-Resolved Fluorescence (HTRF) Assay for the Recombinant Human SYK Enzyme:

Row | SMILES | IC50 [nM]
1 | Cc1cc(Nc2nccc(C(F)(F)F)n2)cc(-c2cnc([C@]3(O)CCC(=O)NC[C@H]3O)s2)c1 (relative stereo) [161(A), [cis]5,6-dihydroxy-5-[5-(3-methyl-5-{[4-(trifluoromethyl)pyrimidin-2-yl]amino}phenyl)-1,3-thiazol-2-yl]azepan-2-one] | < 100
2 | Cc1cc(Nc2nccc(C(F)(F)F)n2)cc(-c2cnc(C3CCC(C(N)=O)C(C)(C)C3)s2)c1 (single isomer, unassigned) [154(b), 2,2-Dim ethyl-4-[5-(3-methyl-5-{[4-(trifluoromethyl)pyrimidin-2-yl]amino}phenyl)-1,3-thiazol-2-yl]cyclohexanecarboxamide] | < 100
3 | Cc1cc(Nc2nccc(C(F)(F)F)n2)cc(-c2cnc(C3CCC(C(N)=O)C(C)(C)C3)s2)c1 (single isomer, unassigned) [154(c), 2,2-Dim ethyl-4-[5-(3-methyl-5-{[4-(trifluoromethyl)pyrimidin-2-yl]amino}phenyl)-1,3-thiazol-2-yl]cyclohexanecarboxamide] | < 100
4 | Cc1cc(Nc2nccc(C(F)(F)F)n2)cc(-c2cnc(C3CCC(C(N)=O)C(C)(C)C3)s2)c1 (single isomer, unassigned) [154(d), 2,2-Dim ethyl-4-[5-(3-methyl-5-{[4-(trifluoromethyl)pyrimidin-2-yl]amino}phenyl)-1,3-thiazol-2-yl]cyclohexanecarboxamide] | < 100
5 | Cc1cc(Nc2nccc(C(F)(F)F)n2)cc(-c2cnc(C3(O)CCNC(=O)CC3O)s2)c1 (single isomer, unassigned) [161(D), 4,5-dihydroxy-5-[5-(3-methyl-5-{[4-(trifluoromethyl)pyrimidin-2-yl]amino}phenyl)-1,3-thiazol-2-yl]azepan-2-one] | < 100

Continued, values first:

Row | IC50 [nM] | SMILES
6 | < 100 | Cc1cc(Nc2nccc(C(F)(F)F)n2)cc(-c2cnc(CNC(CO)C(C)O)s2)c1 (single isomer, unassigned) [Example 88A-44]
7 | < 100 | Cc1cc(Nc2nccc(C(C)O)n2)cc(-c2cnc(C3(O)CCC(C(=O)O)C(C)(C)C3)s2)c1 (single isomer, unassigned) [Example 100A-15]
8 | < 100 | Cc1cc(Nc2nccc(C(O)C3CC3)n2)cc(-c2cnc(C3(O)CCC(C(=O)O)C(C)(C)C3)s2)c1 (single isomer, unassigned) [Example 100A-19]
9 | < 100 | Cc1cc(Nc2nccc(C(F)C3CC3)n2)cc(-c2cnc(C3(O)CCC(C(=O)O)C(C)(C)C3)s2)c1 (single isomer, unassigned) [Example 100A-22]
10 | < 100 | Cc1cc(Nc2nccc(C(C)(O)C3CC3)n2)cc(-c2cnc(C3(O)CCC(C(=O)O)C(C)(C)C3)s2)c1 (single isomer, unassigned) [Example 100A-26]

Same assay, conditions: read-out: rhSYK Activity; Table 8A

Row | IC50 [nM] | SMILES
11 | < 100 | Cc1cc(Nc2nccc(C(F)(F)F)n2)cc(-c2cnc(C3(O)CCC(O)C(C)(C)C3)s2)c1 (stereo not drawn) [8A-7]

Same assay, conditions: read-out: rhSYK Activity; Table 10, Formula A

Row | IC50 [nM] | SMILES
12 | < 100 | Cc1cc(Nc2nccc(C(C)C)n2)cc(-c2cnc(C3(O)CCNC(=O)CC3)s2)c1 (single isomer, unassigned) [Example 10A-3]

Same assay, conditions: read-out: rhSYK Activity; Table 33-A

Row | IC50 [nM] | SMILES
13 | < 100 | Cc1cc(Nc2ncc(Cl)cn2)cc(-c2cnc(C3(O)CCC(C(=O)O)C(C)(C)C3)s2)c1 (single isomer, unassigned) [Example 33A-44]
14 | < 100 | COC(=O)C1CCC(O)(c2ncc(-c3cc(CO)cc(Nc4nccc(C(F)(F)F)n4)c3)s2)CC1(C)C (single isomer, unassigned) [Example 33A-52]
15 | < 100 | CC1(C)CC(O)(c2ncc(-c3cc(Nc4nccc(C(F)(F)F)n4)cc(C(F)F)c3)s2)CCC1C(=O)O (single isomer, unassigned) [Example 33A-58]
16 | < 100 | CC1(C)CC(O)(c2ncc(-c3cc(F)cc(Nc4nccc(C(F)(F)F)n4)c3)s2)CCC1C(=O)O (single isomer, unassigned) [Example 33A-64]
17 | < 100 | CC1(C)CC(O)(c2ncc(-c3cccc(Nc4nccc(C(F)(F)F)n4)c3)s2)CCC1C(=O)O (single isomer, unassigned) [Example 33A-67]
18 | < 100 | COc1ccnc(Nc2cc(C)cc(-c3cnc(C4(O)CCC(C(=O)O)C(C)(C)C4)s3)c2)n1 (single isomer, unassigned) [Example 33A-73]
19 | < 100 | Cc1cc(Nc2nccc(C(F)(F)F)n2)cc(-c2cnc(C3(O)CCC(C(=O)O)C(C)(C)C3C)s2)c1 (single isomer, unassigned) [Example 33A-78]

Same assay, conditions: read-out: rhSYK Activity; Table 33B

Row | IC50 [nM] | SMILES
20 | < 100 | Cc1cc(Nc2nccc(C(F)(F)F)n2)cc(-c2cnc(C3(O)CCC(CC(=O)O)C3)s2)c1 (single isomer, unassigned) [Example 33B-26]
21 | < 100 | Cc1cc(Nc2nccc(C(F)(F)F)n2)cc(-c2cnc(C3(O)CCC(CC(=O)O)C3)s2)c1 (single isomer, unassigned) [Example 33B-27]
22 | < 100 | Cc1cc(Nc2nccc(C(F)(F)F)n2)cc(-c2cnc(C3(O)CCC(CC(=O)O)C3)s2)c1 (single isomer, unassigned) [Example 33B-28]

Same assay, conditions: read-out: rhSYK Activity; Table 33C

Row | IC50 [nM] | SMILES
23 | < 100 | Cc1cc(Nc2nccc(C(F)(F)F)n2)cc(-c2cnc(C3(O)CC[C@H]4C(C(=O)O)[C@H]43)s2)c1 (single isomer, unassigned) [Example 33C-7]
24 | < 100 | Cc1cc(Nc2nccc(C(F)(F)F)n2)cc(-c2cnc(C3(O)CC[C@H]4C(C(=O)O)[C@H]43)s2)c1 (single isomer, unassigned) [Example 33C-8]

Same assay, conditions: read-out: rhSYK Activity; Table 33D

Row | IC50 [nM] | SMILES
25 | < 100 | Cc1cc(Nc2nccc(C(F)(F)F)n2)cc(-c2cnc(C(C)(O)CCC(C)(C)C(=O)O)s2)c1 (single isomer, unassigned) [Example 33D-2]
26 | < 100 | Cc1cc(Nc2nccc(C(F)(F)F)n2)cc(-c2cnc(C(C)(O)c3ccc(C(=O)O)s3)s2)c1 (single isomer, unassigned) [Example 33D-22]

Same assay, conditions: read-out: rhSYK Activity; Table 45

Row | IC50 [nM] | SMILES
27 | 100 to 1000 | Cc1cc(Nc2nccc(C(F)(F)F)n2)cc(-c2cnc(C3(O)CCCN(C(=O)OC(C)(C)C)CC3)s2)c1 (single isomer, unassigned) [45-2]

Same assay, conditions: read-out: rhSYK Activity; Table 54B

Row | IC50 [nM] | SMILES
28 | < 100 | Cc1cc(Nc2nccc(C(F)(F)F)n2)cc(-c2cnc(C3(O)CCN(C(N)=O)C3)s2)c1 (stereo not drawn) [54B-3]
29 | < 100 | Cc1cc(Nc2nccc(C(F)(F)F)n2)cc(-c2cnc(C3(O)CCN(C(N)=O)C3)s2)c1 (stereo not drawn) [54B-7]

Same assay, conditions: read-out: rhSYK Activity; Table 54D

Row | IC50 [nM] | SMILES
30 | < 100 | Cc1cc(Nc2nccc(C(F)(F)F)n2)cc(-c2cnc(C3(O)CCCN(C(=O)CC(N)=O)CC3)s2)c1 (single isomer, unassigned) [Example 54D-21]
31 | < 100 | Cc1cc(Nc2nccc(C(F)(F)F)n2)cc(-c2cnc(C3(O)CCCN(C(=O)CC(=O)O)CC3)s2)c1 (single isomer, unassigned) [Example 54D-26]
32 | < 100 | Cc1cc(Nc2nccc(C(F)(F)F)n2)cc(-c2cnc(C3(O)CCCN(C(=O)C(O)CO)CC3)s2)c1 (single isomer, unassigned) [Example 54D-29]
33 | < 100 | Cc1cc(Nc2nccc(C(F)(F)F)n2)cc(-c2cnc(C3(O)CCCN(C(=O)c4cnn[nH]4)CC3)s2)c1 (single isomer, unassigned) [Example 54D-37]
34 | < 100 | Cc1cc(Nc2nccc(C(F)(F)F)n2)cc(-c2cnc(C3(O)CCCN(C(=O)c4cnon4)CC3)s2)c1 (single isomer, unassigned) [Example 54D-39]
35 | < 100 | Cc1cc(Nc2nccc(C(F)(F)F)n2)cc(-c2cnc(C3(O)CCCN(C(=O)CCC(N)=O)CC3)s2)c1 (single isomer, unassigned) [Example 54D-42]
36 | < 100 | Cc1cc(Nc2nccc(C(F)(F)F)n2)cc(-c2cnc(C3(O)CCCN(C(=O)c4cnnn4C)CC3)s2)c1 (single isomer, unassigned) [Example 54D-51]
37 | < 100 | Cc1cc(Nc2nccc(C(F)(F)F)n2)cc(-c2cnc(C3(O)CCCN(C(=O)Cn4ccnn4)CC3)s2)c1 (single isomer, unassigned) [Example 54D-53]
38 | < 100 | Cc1cc(Nc2nccc(C(F)(F)F)n2)cc(-c2cnc(C3(O)CCCN(C(=O)c4nnnn4C)CC3)s2)c1 (single isomer, unassigned) [Example 54D-58]
39 | < 100 | Cc1cc(Nc2nccc(C(F)(F)F)n2)cc(-c2cnc(C3(O)CCCN(C(=O)Cc4nnn[nH]4)CC3)s2)c1 (single isomer, unassigned) [Example 54D-60]
40 | < 100 | CCOC(=O)CC(=O)N1CCCC(O)(c2ncc(-c3cc(C)cc(Nc4nccc(C(F)(F)F)n4)c3)s2)CC1 (single isomer, unassigned) [Example 54D-74]
41 | < 100 | Cc1cc(Nc2nccc(C(F)(F)F)n2)cc(-c2cnc(C3(O)CCCN(C(=O)C(C)(CO)CO)CC3)s2)c1 (single isomer, unassigned) [Example 54D-80]
42 | < 100 | Cc1cc(Nc2nccc(C(F)(F)F)n2)cc(-c2cnc(C3(O)CCCN(C(=O)c4[nH]nnc4Cl)CC3)s2)c1 (single isomer, unassigned) [Example 54D-101]
43 | < 100 | Cc1cc(Nc2nccc(C(F)(F)F)n2)cc(-c2cnc(C3(O)CCCN(C(=O)c4nn[nH]c4C(F)(F)F)CC3)s2)c1 (single isomer, unassigned) [Example 54D-108]
44 | < 100 | Cc1cc(Nc2nccc(C(F)(F)F)n2)cc(-c2cnc(C3(O)CCCN(C(=O)c4n[nH]c(C(F)(F)F)n4)CC3)s2)c1 (single isomer, unassigned) [Example 54D-110]
45 | < 100 | Cc1cc(Nc2nccc(C(F)(F)F)n2)cc(-c2cnc(C3(O)CCCN(S(N)(=O)=O)CC3)s2)c1 (single isomer, unassigned) [Example 54D-117]
46 | < 100 | Cc1cc(Nc2nccc(C(F)(F)F)n2)cc(-c2cnc(C3(O)CCCN(C(N)=O)CC3)s2)c1 (single isomer, unassigned) [Example 54D-120]
47 | < 100 | Cc1cc(Nc2nccc(C(F)(F)F)n2)cc(-c2cnc(C3(O)CCCN(C(=O)CO)CC3)s2)c1 (single isomer, unassigned) [Example 54D-123]
48 | < 100 | Cc1cc(Nc2nccc(C(F)(F)F)n2)cc(-c2cnc(C3(O)CCCN(C(=O)c4nc[nH]n4)CC3)s2)c1 (single isomer, unassigned) [Example 54D-125]
